The values below come from patent US8785439B2, “2,5,7-substituted oxazolopyrimidine derivatives” (Sanofi, priority 2010, dated 2014).

The target in this assay is T1, human Edg-1 receptor (Homo sapiens, UniProt P21453).
T1 construct: FLAG (N); expressed in transfected cells; membrane preparation
The experiment in a line: GTP-γ-S assay using human Edg-1 receptors (SPA, CHO Flp-In cell membrane preparation). The format is biochemical. The note with it: test compound at 10 μM; high control 10 μM S1P regarded as 100% activation; background-corrected; triplicate; read-out: % Activation (Edg-1 receptor activation in percent of the activation by 10 μM S1P). In a few lines:
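Membranes from CHO Flp-In cells stably overexpressing N-terminally FLAG-tagged human Edg-1 were used in a scintillation-proximity GTP-γ-S binding assay to measure receptor activation by compounds.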

T1 sequence (P21453 whole entry): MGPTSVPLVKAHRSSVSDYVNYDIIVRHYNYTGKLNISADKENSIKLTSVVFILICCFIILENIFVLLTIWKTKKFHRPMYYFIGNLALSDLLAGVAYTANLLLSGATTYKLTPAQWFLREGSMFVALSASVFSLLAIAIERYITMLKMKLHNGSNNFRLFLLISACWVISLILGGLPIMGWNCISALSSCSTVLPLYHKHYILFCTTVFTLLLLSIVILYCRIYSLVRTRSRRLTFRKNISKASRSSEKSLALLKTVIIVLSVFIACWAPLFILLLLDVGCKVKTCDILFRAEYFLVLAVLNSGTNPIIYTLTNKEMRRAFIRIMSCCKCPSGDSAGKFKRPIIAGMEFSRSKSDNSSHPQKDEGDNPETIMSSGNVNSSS

On to `CCOc1nc(Oc2cccc(S(N)(=O)=O)c2)nc2oc(-c3cc(F)ccc3Cl)nc12` [Example 21, 3-[2-(2-chloro-5-fluoro-phenyl)-7-ethoxy-oxazolo[5,4-d]pyrimidin-5-yloxy]-benzenesulfonamide], for which the activation at 10 µM is 81%. With `CCCOc1nc(Sc2ccc(C)cn2)nc2oc(-c3cc(F)ccc3Cl)nc12` [Example 155, 2-(2-chloro-5-fluoro-phenyl)-5-(5-methyl-pyridin-2-ylsulfanyl)-7-propoxy-oxazolo[5,4-d]pyrimidine], the activation at 10 µM was found to be 62%.

Turning to `CCCOc1nc(Oc2ccc(C)cc2C)nc2oc(-c3cccc(C)c3)nc12` [Example 53, 5-(2,4-dimethyl-phenoxy)-7-propoxy-2-(3-methyl-phenyl)-oxazolo[5,4-d]pyrimidine], the activation at 10 µM is 73%. As for `CCCOc1nc(NN2CCOCC2)nc2oc(-c3cccc(C)c3)nc12` [Example 65, morpholin-4-yl-(7-propoxy-2-(3-methyl-phenyl)-oxazolo[5,4-d]pyrimidin-5-yl)-amine], the figure is 105%; as for `CCCOc1nc(OC2CCCCC2)nc2oc(-c3cccc(C)c3)nc12` [Example 2, 5-Cyclohexyloxy-7-propoxy-2-(3-methyl-phenyl)-oxazolo[5,4-d]pyrimidine], 90%. As to `CCCOc1nc(Oc2ccc(C(F)(F)F)cc2Cl)nc2oc(-c3cccc(C)c3)nc12` [Example 145, 5-(2-chloro-4-trifluoromethyl-phenoxy)-7-propoxy-2-(3-methyl-phenyl)-oxazolo[5,4-d]pyrimidine], the activation at 10 µM is 82%. As to `CCCOc1nc(Sc2nccs2)nc2oc(-c3cc(F)ccc3Cl)nc12` [Example 59, 2-(2-chloro-5-fluoro-phenyl)-7-propoxy-5-(thiazol-2-ylsulfanyl)-oxazolo[5,4-d]pyrimidine], the activation at 10 µM came out at 103%.

With `CCCOc1nc(SC2CCS(=O)(=O)C2)nc2oc(-c3cccc(C)c3)nc12` (stereo not drawn) [Example 27, 5-(1,1-dioxo-tetrahydro-1lambda6-thiophen-3-ylsulfanyl)-7-propoxy-2-(3-methyl-phenyl)-oxazolo[5,4-d]pyrimidine], the activation at 10 µM is 93%.

Regarding `CCOc1nc(Oc2cccc(S(N)(=O)=O)c2)nc2oc(-c3cccc(C)c3)nc12` [Example 22, 3-(7-ethoxy-2-(3-methyl-phenyl)-oxazolo[5,4-d]pyrimidin-5-yloxy)-benzenesulfonamide], the activation at 10 µM turned out to be 100%. As for `CCCOc1nc(Oc2cccnc2)nc2oc(-c3cccc(OC)c3)nc12` [Example 41, 2-(3-methoxy-phenyl)-7-propoxy-5-(pyridin-3-yloxy)-oxazolo[5,4-d]pyrimidine], the figure is 102%. To `CCCOc1nc(Oc2cc(F)cc(F)c2Cl)nc2oc(-c3cccc(C)c3)nc12` [Example 100, 5-(2-chloro-3,5-difluoro-phenoxy)-7-propoxy-2-(3-methyl-phenyl)-oxazolo[5,4-d]pyrimidine] belongs 108%; to `CCCOc1nc(Oc2cc(F)cc(C(F)(F)F)c2)nc2oc(-c3cccc(C)c3)nc12` [Example 144, 5-(3-fluoro-5-trifluoromethyl-phenoxy)-7-propoxy-2-(3-methyl-phenyl)-oxazolo[5,4-d]pyrimidine], 76%; to `CCCOc1nc(Oc2ccc(Cl)cc2Cl)nc2oc(-c3cccc(C)c3)nc12` [Example 119, 5-(2,4-dichloro-phenoxy)-7-propoxy-2-(3-methyl-phenyl)-oxazolo[5,4-d]pyrimidine], 116%. Consider `CCCOc1nc(Oc2cccc(C)c2)nc2oc(-c3cccc(C)c3)nc12` [Example 98, 7-propoxy-2-(3-methyl-phenyl)-5-(3-methyl-phenyl)oxy-oxazolo[5,4-d]pyrimidine], for which the activation at 10 µM is 107%. `CCCOc1nc(Oc2ccc(OC(F)(F)F)c(Cl)c2)nc2oc(-c3cccc(C)c3)nc12` [Example 52, 5-(3-chloro-4-trifluoromethoxy-phenoxy)-7-propoxy-2-(3-methyl-phenyl)-oxazolo[5,4-d]pyrimidine]: the activation at 10 µM is 51%.
